From patent US11793816B2, “Methods for enhancing cytotoxic cancer therapy through inhibition of ATG4B” (Northwestern University, priority 2019, dated 2023)
Entries after “also recorded” stand apart in the source; their conditions may differ.

Experiments:
[1] = test system: intracranial GBM6FL TMZ res xenografts; test: Intracranial PDX GBM6FL temozolomide resistant xenograft model; format: in vivo, mice; details: compared to vehicle-treated brain xenografts
Text: FIG. 8. Combination therapy of autophagy inhibitor NSC185058 (NSC) with IR+TMZ suppressed growth of intracranial GBM6FL temozolomide (TMZ) resistant (res) xenografts. […] Mice were imaged at the indicated day after the implantation, and representative BLI images are shown. (B) Changes in the body weight of the mice in each respective treatment groups. (C, D) Effects of NSC, IR, TMZ and the indicated combinations on GBM6FL TMZ res orthotopic xenografts in mice. The luminescence of xenograft tumors formed by indicated treatment. **p<0.01 compared to vehicle controls. Colored scale bars represent photons/s/cm2/steradian. (E, F) Kaplan-Meier (E) and log-rank p value analyses (F) of mice bearing GBM6FL TMZ res orthotopic xenografts with indicated treatments. First and second IR+TMZ+NSC tri-treatments were started at day 7 and day 35 post-implantation, respectively.
GBM6FL TMZ res orthotopic xenograft model was recently established by Dr. Charles David James at Northwestern University as intracranial GBM xenografts after three runs of TMZ treatments and subsequent passages in the flanks of mice.

GSC JK83 and M83 = test: Cell viability assay, AZD2014 and NSC, 72 h; format: cell-based
Method: (§1) FIG. 5. A mTORC1/2 inhibitor AZD2014 inhibited cell survival, mTORC1 and mTORC2 activities in GSCs and glioma cells. (A) GSC M83 and JK83 and glioma cells U87 were treated with indicated concentration of AZD2014 for 72 h, then cell viability was evaluated. (B) GSC M83 and JK83 were treated with the indicated concentration of AZD2014 for 1 hr, or with 2 μM AZD2014 for the specified time. Cells were collected for immunoblot analysis. β-actin was used as a loading control; Results are representative of 2 independent experiments. *P<0.05, **P<0.01, paired two-way Student's t-test. Data are representative from three independent experiments with similar results.
(§2) FIG. 6. NSC enhanced the cytotoxicity of a mTORC1/2 inhibitor AZD2014 in GSCs. (A) GSC M83 and JK83 were exposed to DMSO control vs AZD2014 vs NSCs vs AZD2014 in combination with NSC for 72 hr. Cells were collected for immunoblot analysis using indicated antibodies. (B) Immunofluorescence analyses for LC3B puncta in GSC M83 and JK83 cells with indicated treatments. (C and D) GSC M83 and JK83 and/or neural progenitor cells (NPC) were treated as indicated in (A), cell viability was tested at 72 h after treatment (C), and cell apoptosis was measured by Annexin V FACS assay 48 h after treatment. Data are representative from three independent experiments with similar results.
GSCs with single or combined treatments were cultured for 72 hours in 96-well plates at 2,000 cells per well. Cell viabilities were determined using CellTiter-Glow 2.0 Assay (Promega).
(§3) mTOR kinases are crucial regulators of glioma cell growth, proliferation and survival (Akhavan et al., 2010). […] A strong inhibition was achieved by 1 μM with complete block of mTORC1/2 activities at 2 μM (FIG. 5B).
(§4) Since autophagy activation is considered as a cytoprotective factor that contribute to tumor survival when challenged by therapies, it is proposed that block of autophagy activation by NSC would further enhanced the cytotoxicity of dual TORC1/2 inhibitor AZD2014.

[2] = test system: LC3B, p62/SQSTM-1 and LAMP2 in GSC M83 and JK83 cells; test: Immunoblot of autophagy markers (LC3B, p62, LAMP2) in GSCs treated with AZD2014 and NSC; format: cell-based; details: NSC in the presence of AZD2014
Method: as §1
as §2, with “results. […]” for “results.”

[3] = test system: mTORC1 and mTORC2 activity in GSC M83 and JK83 cells; test: Immunoblot of mTORC1 and mTORC2 activity in GSCs; format: cell-based
Method: as §1, §2
IB assays were performed as previously described (Huang et al., 2016b). Specific antibodies were used according to the manufacturer's instructions: LC3B (#3868S), pAKT (Ser473; 4060), pAKT(Thr308; 4056), AKT (4691), pS6(S235/236; 2211), S6 (2317), phosphorylated 4E-binding protein 1 (p4EBP1) (Thr37/46; 2855), 4EBP1 (9644), p-mTOR (Ser2448; 2971S), p-mTOR (Ser2481; 2974S), mTOR (2972S), pULK1(Ser317; 14202T), pULK1 (Ser757; 8054T), ULK1(6439), LAMP2 (49067S) were from Cell Signaling Technology. Anti-β-actin (SC-47778) and anti-SQSTM1/p62 (SC-28359) antibodies were from Santa Cruz Biotechnology. An anti-Ki-67 antibody (AB9260) was from EMD Millipore.
as §3, §4

[4] = test system: GSC JK83 orthotopic xenografts; test: GSC JK83 orthotopic brain tumor xenograft model (survival, BLI, tissue staining); format: in vivo, mice
Text: FIG. 7. NSC enhance anticancer efficacy of AZD2014 in a patient-derived GSC xenograft model. […] Treatments were started at one week post-implantation. Bioluminescent (BLI) images were taken after the last treatment, and representative images are shown. Scale bar, photons/sec/cm2/steradian. (B) Kaplan-Meier of mice bearing GSC JK83 orthotopic xenografts with indicated treatments. (C) The brains of mice bearing orthotopic xenografts with indicated treatments were collected for immunohistochemical evaluation using indicating antibody. *P<0.05, **p<0.01, […]. Data are representative from three independent experiments with similar results.
Frozen brain tissue sections with GBM xenografts were dried and then fixed in were fixed in 4% paraformaldehyde (PFA) in PBS for 5 minutes. Tissue sections were blocked with AquaBlock (East Coast Bio, North Berwick, Me.) for an hour and then were probed with appropriate primary antibodies 4° C. overnight. Tissue sections were incubated with Alexa 488 or 594 labelled secondary antibodies (1:200) and DAPI-containing mounting solution Vectashield (Vector Laboratories), and representative images were photographed using a Nikon inverted microscope Eclipse Ti-U equipped with a digital camera.
To determine whether the enhancement of AZD2014 therapeutic efficiency by combination with NSC measured in vitro extends to an orthotopic model, GSC JK83 glioma spheres were employed to initiate intracerebral xenografts in mice.

[5] = test system: LC3B puncta in GSC M83 and JK83 cells; test: LC3B immunofluorescence (puncta, autophagosomes); format: cell-based; details: NSC in cells treated with AZD2014
Method: as §2
Immunofluorescent staining. GSCs were seeded onto LabTek CC2-treated tissue culture slides (Thermo Fisher) and cultured for 24 hours. Cells were then fixed with 4% formaldehyde (Fisher) for 15 min, and permeabilized with 0.1% Triton X-100, and then blocked with AquaBlock (East Coast Bio, North Berwick, Me.) for 60 minutes. The slides were incubated with indicated primary antibodies according to the manufacturer's instructions. After being washed for three times with PBS-T, cells were incubated with secondary antibody (Alexa 488 and 594, 1:200) and DAPI-containing mounting solution Vectashield (Vector Laboratories). Cells were analyzed on a Nikon inverted microscope Eclipse Ti-U equipped with a digital camera. […]

U87 cells = test: Cell viability assay, AZD2014, 72 h; format: cell-based
Method: as §1
Glioma cells U87 (from ATCC) were cultured in DMEM (Invitrogen) supplemented with 10% FBS and 1% penicillin and streptomycin. Neural progenitor cells were cultured in NPBM Neural Progenitor Basal medium supplemented with hEGF, hFGF, NSF-1 and GA (Lonza, Cat #: cc-3210, cc-4241 and cc-4242). […]
GSCs with single or combined treatments were cultured for 72 hours in 96-well plates at 2,000 cells per well. Cell viabilities were determined using CellTiter-Glow 2.0 Assay (Promega). […]

Cn1nnc2c(C(N)=O)ncn2c1=O [TMZ, temozolomide]
response of xenografts to TMZ treatments [1]: no response

CNC(=O)c1cccc(-c2ccc3c(N4CCOC[C@@H]4C)nc(N4CCOC[C@@H]4C)nc3n2)c1 [AZD2014, vistusertib]
cell viability (GSC JK83 and M83; 72 h, combination compared with monotherapy, AZD2014 alone): displayed inhibitor effects on GBM cell viability
concentration at which cell viability was significantly decreased (GSC JK83 and M83; GSC JK83 and M83, 72 h): 1 µM
inhibition efficiency on GSCs compared with glioma cells (GSC JK83 and M83; same concentration of AZD2014, GSCs vs U87): significantly lower than glioma cells
autophagy markers (LC3B conversion, p62 and LAMP2 degradation) [2]: increased LC3-II conversion (LC3B-II/I ratio) and p62/SQSTM-1 degradation; also recorded: induced autophagic influx by inducing LC3B lipidation and degradation of p62 and LAMP2
mTOR signaling and ULK1 phosphorylation ([3]; GSC83 and JK83 cells, 72 hr): inhibited mTOR induced p-52448/81-mTOR, p-S473-Akt, p-S6, p-S757-ULK1
concentration giving complete block of mTORC1/2 activities ([3]; GSC M83 and JK83): 2 µM
concentration giving strong inhibition of mTORC1/2 activities ([3]; GSC M83 and JK83): 1 µM
time by which inhibition of mTORC1 and mTORC2 was detectable ([3]; GSC M83 and JK83, 2 μM AZD2014): ≤ 2 h
inhibition of p-S6, p-4EBP1, p-AKT (Ser473) ([3]; GSC M83 and JK83, 1 hr): dose-dependently inhibited p-S6, p-4EBP1, and p-AKT (Ser473)
levels of p-4EBP1 and p-AKT in tumor tissues ([4]; AZD2014 alone or in combination with NSC vs control): significantly reduced in the levels of p-4EBP1 and p-AKT
mouse survival ([4]; NSC (100 mg/kg), AZD2014 (50 mg/kg), alone or combined, vs control): modest but significant effects on mouse survival
autophagosomes number (LC3 B immunofluorescence) [5]: increase of autophagosomes number
concentration at which cell viability was significantly decreased (U87 cells): 0.1 µM
